What was measured:
[1] = human, serum
[2] = human
[3] = human; remark: listed apart in the source
[4] = human; remark: listed apart in the source
[5] = Highest frequency of acute liver toxicity observed during clinical trials, expressed as a percentage. [column '% AIGUE' in source]; conditions: human
[6] = human; remark: listed apart in the source
[7] = human; remark: listed apart in the source
[8] = human, serum, 4383 h
[9] = human; remark: listed apart in the source
[10] = human, serum; remark: listed apart in the source
[11] = human; remark: listed apart in the source
[12] = human; remark: listed apart in the source
[13] = human; remark: listed apart in the source
[14] = Highest frequency of moderate liver toxicity observed during clinical trials, expressed as a percentage. [column '% BIOL' in source]; conditions: human
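For Hepatotoxicity (association with vascular disease) in this document: count of indexed literature references reporting vascular liver injury in humans, e.g. peliosis hepatitis, hepatic veno-occlusive disease or Budd-Chiari syndrome.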
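For Hepatotoxicity (benign tumour) in this document: value is a count of indexed literature references citing a benign tumour confirmed by histopathology.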
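For Hepatotoxicity (choleostasis) in this document: human cholestatic liver injury, shown by histopathology or by peak ALT or AST elevation over alkaline phosphatase ratio below 2, value counts indexed literature reports.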
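For Hepatotoxicity (chronic liver disease) in this document: chronic liver injury confirmed by histopathology or persistently raised serum aminotransferase activity beyond 6 months, value given as the count of indexed literature references.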
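For Hepatotoxicity (cirrhosis) in this document: value is a count of indexed literature references reporting cirrhosis confirmed by histopathology.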
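For Hepatotoxicity (cytolytic) in this document: human cytolytic liver injury, shown by histopathology or by a ratio above 5 of peak ALT or AST elevation to alkaline phosphatase elevation, value counts indexed references.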
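For Hepatotoxicity (granulomatous hepatitis) in this document: value is a count of indexed literature references reporting granulomatous liver disease confirmed by histopathology.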
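For Hepatotoxicity (malignant tumour) in this document: malignant tumour confirmed by histopathology, value gives the count of indexed literature references reporting it.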
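For Hepatotoxicity (severe hepatitis) in this document: human clinical data: severe hepatitis, meaning potentially life-threatening liver failure or clinically observed cases, the value counts how many indexed literature references report it.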
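For Hepatotoxicity (steatosis) in this document: steatosis confirmed by histopathology, value is the count of indexed references.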

Row | Structure (SMILES) | Hepatotoxicity (acute) [1] | Hepatotoxicity (choleostasis) [2] | Hepatotoxicity (cirrhosis) [3] | Hepatotoxicity (malignant tumour) [4] | Hepatotoxicity (acute) [5] | Hepatotoxicity (granulomatous hepatitis) [6] | Hepatotoxicity (cytolytic) [7] | Hepatotoxicity (chronic liver disease) [8] | Hepatotoxicity (steatosis) [9] | Hepatotoxicity (moderate) [10] | Hepatotoxicity (severe hepatitis) [11] | Hepatotoxicity (association with vascular disease) [12] | Hepatotoxicity (benign tumour) [13] | Hepatotoxicity (moderate) [14] | Hepatotoxicity (acute) ([5]; Liver) | Hepatotoxicity (severe hepatitis) ([11]; Liver) | Hepatotoxicity (moderate) ([14]; Liver) | Hepatotoxicity (choleostasis) ([2]; Liver) | Hepatotoxicity (granulomatous hepatitis) ([6]; Liver) | Hepatotoxicity (cytolytic) ([7]; Liver)
1 | CC(=O)c1ccc2c(c1)N(CCCN1CCC(CCO)CC1)c1ccccc1S2 [PIPERACETAZINE] | 0 | 0 | 0 | 0 | 0% | 0 | 0 | 0 | 0 | 1 | 0 | 0 | 0 | 39% |  |  |  |  |  | 
2 | CN(C)S(=O)(=O)c1ccc2c(c1)N(CCCN1CCC(CCO)CC1)c1ccccc1S2 [PIPOTIAZINE] | 0 | 0 | 0 | 0 | 0% | 0 | 0 | 0 | 0 | 1 | 0 | 0 | 0 | 1.9% |  |  |  |  |  | 
3 | COc1cccc2c1C(=O)c1c(O)c3c(c(O)c1C2=O)C[C@@](O)(C(=O)CO)C[C@@H]3O[C@H]1C[C@H](N)[C@H](O[C@@H]2CCCCO2)[C@H](C)O1 [PIRARUBICIN] | 0 | 0 | 0 | 0 | 0% | 0 | 0 | 0 | 0 | 1 | 0 | 0 | 0 | 1.1% |  |  |  |  |  | 
4 | CN1CCN(CC(=O)N2c3ccccc3C(=O)Nc3cccnc32)CC1 [PIRENZEPINE] | 0 | 0 | 0 | 0 | 0% | 0 | 0 | 0 | 0 | 2 | 0 | 0 | 0 | 0.7% |  |  |  |  |  | 
5 | Cc1cccc(Nc2cc(Cl)nc(SCC(=O)NCCO)n2)c1C [PIRINIXIL] | 0 | 0 | 0 | 0 | 0% | 0 | 0 | 0 | 0 | 1 | 0 | 0 | 0 | 0% |  |  |  |  |  | 
6 | CC1CCCC(C)N1CCCC(O)(c1ccccc1)c1ccccn1 (centres undefined) [PIRMENOL] | 0 | 0 | 0 | 0 | 0% | 0 | 0 | 0 | 0 | 1 | 0 | 0 | 0 | 5.3% |  |  |  |  |  | 
7 | NCCCNc1ccc2c3c(nn2CCNCCO)-c2c(O)ccc(O)c2C(=O)c13 [PIROXANTRONE] | 0 | 0 | 0 | 0 | 0% | 0 | 0 | 0 | 0 | 4 | 0 | 0 | 0 | 9.1% |  |  |  |  |  | 
8 | CCc1[nH]c(=O)[nH]c1C(=O)c1ccncc1 [PIROXIMONE] | 1 | 0 | 0 | 0 | 0% | 0 | 0 | 0 | 0 | 0 | 0 | 0 | 0 | 0% |  |  |  |  |  | 
9 | O=C(O)C[C@H](O)C[C@H](O)/C=C/c1c(C2CC2)nc2ccccc2c1-c1ccc(F)cc1 [PITAVASTATIN] | 0 | 0 | 0 | 0 |  | 0 | 0 | 0 | 0 | 1 |  | 0 | 0 |  | 0% | 0 | 1.7% |  |  | 
10 | CC(C)(C)C(=O)OCOC(=O)[C@@H]1N2C(=O)[C@@H](NC(=O)[C@H](N)c3ccccc3)[C@H]2SC1(C)C [PIVAMPICILLIN] | 1 | 0 | 0 | 0 | 0% | 0 | 1 | 0 | 0 | 0 | 0 | 0 | 0 | 0% |  |  |  |  |  | 
11 | CC(C)(Oc1ccc(Cl)cc1)C(=O)NC(=O)NCN1CCOCC1 [PLAFIBRIDE] | 0 | 0 | 0 | 0 | 0% | 0 | 0 | 0 | 0 | 1 | 0 | 0 | 0 | 20% |  |  |  |  |  | 
12 | CN1C(CSCC(F)(F)F)Nc2cc(Cl)c(S(N)(=O)=O)cc2S1(=O)=O (centres undefined) [POLYTHIAZIDE] | 1 | 1 | 0 | 0 | 0% | 0 | 1 | 0 | 0 | 0 | 0 | 0 | 0 | 0% |  |  |  |  |  | 
13 | CCCN[C@H]1CCc2nc(N)sc2C1 [PRAMIPEXOLE] | 0 |  | 0 | 0 |  |  |  | 0 | 0 | 1 |  | 0 | 0 |  | 0% | 0 | 7.1% | 0 | 0 | 0
14 | COc1cc2nc(N3CCN(C(=O)c4ccco4)CC3)nc(N)c2cc1OC [PRAZOSIN] | 1 | 1 | 0 | 0 |  | 0 | 0 | 0 | 0 | 0 |  | 0 | 0 |  | 0.2% | 0 | 0% |  |  | 
15 | CC(C)(Sc1cc(C(C)(C)C)c(O)c(C(C)(C)C)c1)Sc1cc(C(C)(C)C)c(O)c(C(C)(C)C)c1 [PROBUCOL] | 0 | 0 | 0 | 0 | 0% | 0 | 0 | 0 | 0 | 2 | 0 | 0 | 0 | 0% |  |  |  |  |  | 
16 | CC(CN1c2ccccc2Sc2ccccc21)N(C)C (centres undefined) [PROMETHAZINE] | 2 | 0 | 0 | 0 | 0% | 0 | 0 | 0 | 0 | 0 | 0 | 0 | 0 | 0% |  |  |  |  |  | 

Source: ChEMBL document CHEMBL3137667, “[Drug-induced liver injury; fourteenth updated edition of the bibliographic database of liver injuries and related drugs]” (Gastroenterol Clin Biol, 2004)
